Measurements as given in patent US12514251B2, “Fused heterocyclic compounds and their use as pest control agents” (priority 2020, dated 2026).

Columns and labels:
Type in all cases: in vivo
[1] = tested on: Myzus persicae; test: Myzus persicae, leaf dip method; details: foliar, capsicum leaf dip, third instar nymphs, 72 h after release, dead + moribund vs untreated control, read-out: percent mortality
Description: The leaf dip method was used for testing, wherein the required quantity of the compound was weighed and dissolved in a tube containing solvent solution. The tube was put on a vortex at 2000 rpm for 90 min for proper mixing, then diluted with 0.01% Triton-X solution to the desired test concentration. Capsicum leaves were dipped in the compound solution for 10 seconds, shade dried for 20 min and then placed, with the abaxial side of the leaf up, in single cells of a bio-assay tray containing 4 ml of a 1% agar-agar solution. Known numbers of third instar nymphs, collected in petri plates, were released into the cell with the treated leaf and the cell was covered with a perforated lid for better aeration. The trays were kept in a plant growth chamber at a temperature of 25° C. and a relative humidity of 70%. Observations on dead, moribund and alive nymphs were recorded 72 h after the release. Percent mortality was calculated by combining dead and moribund nymphs and comparing the result with the one of the untreated control.

[2] = tested on: Helicoverpa armigera; test: Helicoverpa armigera, diet incorporation method; details: third instar larvae, 96 h after release, dead + moribund vs untreated control, read-out: percent mortality
Description: (§1) The diet incorporation method was used, in which the required quantity of the test compound was weighed and dissolved in a tube containing solvent solution. The tube was put on a vortex at 2000 rpm for 90 min for proper mixing. Semi-synthetic diet was incorporated into this solution when the temperature was approximately 50° C. in the bioassay containers. Compound and diet were stirred thoroughly for proper mixing and allowed to cool for 30 min. The solidified diet was cut into equal pieces, and then each piece was transferred into one cell of a bio-assay tray. A single starved third instar larva was released into each of the cells of the bioassay trays and the tray was covered with a lid. The bio-assay trays were then kept under laboratory conditions at a temperature of 25° C. and a relative humidity of 70%. Observations on dead, moribund and alive larvae were recorded 96 h after the release of the larvae. Percent mortality was calculated by combining dead and moribund larvae and comparing the result to the one of the untreated control.

[3] = tested on: Plutella xylostella; test: Plutella xylostella, leaf dip method; details: foliar, cabbage leaf dip, second instar larvae, 72 h after release, dead + moribund vs untreated control, read-out: percent mortality
Method in brief: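 Cabbage leaves were dipped for 10 s in compound diluted with 0.01% Triton-X, shade dried and offered singly to second instar larvae. Trays were held at 25° C. and 70% relative humidity. Dead plus moribund larvae were scored at 72 h, and percent mortality was expressed relative to untreated control.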

[4] = tested on: Nilaparvata lugens; test: Nilaparvata lugens, seedling dip method; details: paddy seedling dip, third instar nymphs, 72 h after release, dead + moribund vs untreated control, read-out: percent mortality
Description: The seedling dip method was used for testing, wherein the required quantity of the compound was weighed and dissolved in a tube containing solvent solution. The tube was put on a vortex at 2000 rpm for 90 min for proper mixing, then diluted with 0.01% Triton-X solution to the desired test concentration.
Paddy seedlings were dipped in the compound solution for 10 seconds, shade dried for 20 min and then the seedlings were placed in glass test tubes with the roots kept in water. 15 third instar nymphs were released into each test tube and the tubes were kept in a plant growth chamber at a temperature of 25° C. and relative humidity of 75%. Observations on dead, moribund and alive nymphs were recorded 72 h after the release. Percent mortality was calculated by combining dead and moribund nymphs and comparing the result to the one of the untreated control.

[5] = tested on: Bemisia tabaci; test: Bemisia tabaci, leaf dip method; details: foliar, brinjal leaf dip, whitefly adults, 72 h after release, dead + moribund vs untreated control, read-out: percent mortality
Description: The leaf dip method was used for testing, wherein the required quantity of the compound was weighed and dissolved in a tube containing solvent solution. The tube was put on a vortex at 2000 rpm for 90 min for proper mixing, then diluted with 0.01% Triton-X solution to get the desired test concentration. Brinjal leaves were dipped in the compound solution for 10 seconds; shade dried for 20 min and then placed, with the abaxial side of the leaf up, on 4 ml of a 1% agar-agar solution in respective perforated container caps. Known numbers of freshly emerged whitefly adults were collected, using a modified aspirator, and released into a perforated container in which the cap containing the treated leaf was placed. The containers were kept in a plant growth chamber at a temperature of 25° C. and relative humidity of 70%.
Observations on dead, moribund and alive adults were recorded 72 h after the release. Percent mortality was calculated by combining dead and moribund adults and comparing the result to the one of the untreated control. The compounds 55 87 and 198 were recorded ≥70 percent mortality @ 300 PPM.

[6] = tested on: Spodoptera litura; test: Spodoptera litura, diet incorporation method; details: third instar larvae, 96 h after release, dead + moribund vs untreated control, read-out: percent mortality
Description: as §1, with “covered with the lid. The” for “covered with a lid. The”, “release of larvae. Percent” for “release of the larvae. Percent”

Compound `CCSc1cc(Br)cnc1-c1ccnc2cc(C(F)(F)F)nn12` [Compound 11, 7-(5-bromo-3-(ethylthio)pyridin-2-yl)-2-(trifluoromethyl)pyrazolo[1,5-a]pyrimidine] has a mortality at 300 ppm [1] of at least 70%.

`CCS(=O)(=O)c1ccc(-n2nccn2)nc1-c1ccn2nc(C(F)(F)F)cc2n1` [Compound 41, 5-(3-(ethylsulfonyl)-6-(2H-1,2,3-triazol-2-yl)pyridin-2-yl)-2-(trifluoromethyl)pyrazolo[1,5-a]pyrimidine] showed a mortality at 300 ppm [2] of at least 70%, a mortality at 300 ppm [3] of at least 70% and a mortality at 300 ppm [4] of at least 70%.

`CCS(=O)(=O)c1ccc(-n2nccn2)nc1-c1cnc2cc(C(F)(F)F)nn2c1` [Compound 55, 6-(3-(ethylsulfonyl)-6-(2H-1,2,3-triazol-2-yl)pyridin-2-yl)-2-(trifluoromethyl)pyrazolo[1,5-a]pyrimidine] gave a mortality at 300 ppm [5] of at least 70%.

`CCS(=O)(=O)c1cc(O)cnc1-c1ccn2nc(C(F)(F)F)nc2n1` [Compound 109, 5-(ethylsulfonyl)-6-(2-(trifluoromethyl)-[1,2,4]triazolo[1,5-a]pyrimidin-5-yl)pyridin-3-ol] gave a mortality at 300 ppm [1] of at least 70%.

Work on `CCS(=O)(=O)c1cc(-c2ccc(Cl)c(F)c2)cnc1-c1ccn2nc(C(F)(F)F)cc2n1` [Compound 126, 5-(5-(4-chloro-3-fluorophenyl)-3-(ethylsulfonyl)pyridin-2-yl)-2-(trifluoromethyl)pyrazolo[1,5-a]pyrimidine] yielded a mortality at 300 ppm [2] of at least 70%, a mortality at 300 ppm [6] of at least 70% and a mortality at 300 ppm [3] of at least 70%.

`CCS(=O)(=O)c1cc(-c2ccc(F)c(Cl)c2)cnc1-c1ccn2nc(C(F)(F)F)cc2n1` [Compound 127, 5-(5-(3-chloro-4-fluorophenyl)-3-(ethylsulfonyl)pyridin-2-yl)-2-(trifluoromethyl)pyrazolo[1,5-a]pyrimidine] showed a mortality at 300 ppm [2] of at least 70%, a mortality at 300 ppm [6] of at least 70% and a mortality at 300 ppm [3] of at least 70%.

With `CCS(=O)(=O)c1cc(-n2cnc(C)n2)cnc1-c1ncc2nc(C(F)(F)F)n(C)c2n1` [Compound 130, 2-(3-(ethylsulfonyl)-5-(3-methyl-1H-1,2,4-triazol-1-yl)pyridin-2-yl)-9-methyl-8-(trifluoromethyl)-9H-purine] the mortality at 300 ppm [4] was at least 70%.

For `CCS(=O)(=O)c1cc(C2CC2)cnc1-c1ccn2nc(C(F)(F)F)cc2n1` [Compound 136, 5-(5-cyclopropyl-3-(ethylsulfonyl)pyridin-2-yl)-2-(trifluoromethyl)pyrazolo[1,5-a]pyrimidine], the mortality at 300 ppm [2] was at least 70%, the mortality at 300 ppm [6] was at least 70% and the mortality at 300 ppm [3] was at least 70%.

`CCS(=O)(=O)c1ccc(NC2CC2)nc1-c1ccn2nc(C(F)(F)F)cc2n1` [Compound 141, N-cyclopropyl-5-(ethylsulfonyl)-6-(2-(trifluoromethyl)pyrazolo[1,5-a]pyrimidin-5-yl)pyridin-2-amine] gave a mortality at 300 ppm [3] of at least 70%, a mortality at 300 ppm [1] of at least 70% and a mortality at 300 ppm [4] of at least 70%.

In the case of `CCS(=O)(=O)c1cc(-c2ccc(Cl)c(Cl)c2)cnc1-c1ccn2nc(C(F)(F)F)cc2n1` [Compound 155, 5-(5-(3,4-dichlorophenyl)-3-(ethylsulfonyl)pyridin-2-yl)-2-(trifluoromethyl)pyrazolo[1,5-a]pyrimidine], the mortality at 300 ppm [2] is reported as at least 70%, the mortality at 300 ppm [6] is reported as at least 70% and the mortality at 300 ppm [3] is reported as at least 70%.

In the case of `CCS(=O)(=O)c1cc(-c2cccc(C(F)(F)F)c2)cnc1-c1ccn2nc(C(F)(F)F)cc2n1` [Compound 156, 5-(3-(ethylsulfonyl)-5-(3-(trifluoromethyl)phenyl)pyridin-2-yl)-2-(trifluoromethyl)pyrazolo[1,5-a]pyrimidine], the mortality at 300 ppm [2] is reported as at least 70%, the mortality at 300 ppm [6] is reported as at least 70% and the mortality at 300 ppm [3] is reported as at least 70%.

Work on `CCS(=O)(=O)c1cccnc1-c1ccn2nc(C(F)(F)F)cc2n1` [Compound 160, 5-(3-(ethylsulfonyl)pyridin-2-yl)-2-(trifluoromethyl)pyrazolo[1,5-a]pyrimidine] yielded a mortality at 300 ppm [2] of at least 70%, a mortality at 300 ppm [3] of at least 70% and a mortality at 300 ppm [1] of at least 70%.

In the case of `CCS(=O)(=O)c1ccc(N(C)C)nc1-c1ccn2nc(C(F)(F)F)cc2n1` [Compound 166, 5-(ethylsulfonyl)-N,N-dimethyl-6-(2-(trifluoromethyl)pyrazolo[1,5-a]pyrimidin-5-yl)pyridin-2-amine], the mortality at 300 ppm [2] is reported as at least 70%, the mortality at 300 ppm [3] is reported as at least 70% and the mortality at 300 ppm [4] is reported as at least 70%.

Compound `CCS(=O)(=O)c1ccc(NC)nc1-c1ccn2nc(C(F)(F)F)cc2n1` [Compound 167, 5-(ethylsulfonyl)-N-methyl-6-(2-(trifluoromethyl)pyrazolo[1,5-a]pyrimidin-5-yl)pyridin-2-amine] has a mortality at 300 ppm [3] of at least 70%, a mortality at 300 ppm [1] of at least 70% and a mortality at 300 ppm [4] of at least 70%.

With `CCS(=O)(=O)c1ccc(N(C)C2CC2)nc1-c1ccn2nc(C(F)(F)F)cc2n1` [Compound 168, N-cyclopropyl-5-(ethylsulfonyl)-N-methyl-6-(2-(trifluoromethyl)pyrazolo[1,5-a]pyrimidin-5-yl)pyridin-2-amine] the mortality at 300 ppm [6] was at least 70%, the mortality at 300 ppm [3] was at least 70% and the mortality at 300 ppm [4] was at least 70%.

Work on `CCS(=O)(=O)c1ccc(N)nc1-c1ccn2nc(C(F)(F)F)cc2n1` [Compound 174, 5-(ethylsulfonyl)-6-(2-(trifluoromethyl)pyrazolo[1,5-a]pyrimidin-5-yl)pyridin-2-amine] yielded a mortality at 300 ppm [3] of at least 70% and a mortality at 300 ppm [4] of at least 70%.

`CCS(=O)(=O)c1ccc(C)nc1-c1ccn2nc(C(F)(F)F)cc2n1` [Compound 182, 5-(3-(ethylsulfonyl)-6-methylpyridin-2-yl)-2-(trifluoromethyl)pyrazolo[1,5-a]pyrimidine] was tested, and the mortality at 300 ppm [3] was at least 70%, the mortality at 300 ppm [1] was at least 70% and the mortality at 300 ppm [4] was at least 70%.

Compound `CCS(=O)(=O)c1cc(OC(C)(C)C(N)=O)cnc1-c1ccn2nc(C(F)(F)F)cc2n1` [Compound 220, 2-((5-(ethylsulfonyl)-6-(2-(trifluoromethyl)pyrazolo[1,5-a]pyrimidin-5-yl)pyridin-3-yl)oxy)-2-methylpropanamide] has a mortality at 300 ppm [3] of at least 70% and a mortality at 300 ppm [1] of at least 70%.

With `CCS(=O)(=O)c1cc(-c2ncccn2)cnc1-c1ccn2nc(C(F)(F)F)cc2n1` [Compound 231, 5-(3-(ethylsulfonyl)-5-(pyrimidin-2-yl)pyridin-2-yl)-2-(trifluoromethyl)pyrazolo[1,5-a]pyrimidine] the mortality at 300 ppm [2] was at least 70%, the mortality at 300 ppm [6] was at least 70% and the mortality at 300 ppm [3] was at least 70%.

`CCCNc1ccc(S(=O)(=O)CC)c(-c2ccn3nc(C(F)(F)F)cc3n2)n1` [Compound 244, 5-(ethylsulfonyl)-N-propyl-6-(2-(trifluoromethyl)pyrazolo[1,5-a]pyrimidin-5-yl)pyridin-2-amine] gave a mortality at 300 ppm [3] of at least 70% and a mortality at 300 ppm [1] of at least 70%.
